Results reported in US12636274B2, “Pharmaceutical compositions and methods for systemic treatment of solid tumors” (7 HILLS INTERESTS LLC, priority 2014, dated 2026).

Assays:
[1] = target: LFA-1/ICAM-1 (Homo sapiens, UniProt P05107+P20701); assay: LFA-1 dependent cell adhesion to ICAM-1; format: cell-based; conditions: FIG. 4; ICAM-1 and Cmpd 1 versus BSA, ICAM-1 alone, Ig and anti-integrin antibodies
From the text: Referring now to FIG. 4, a histogram is shown of induced LFA-1 ([…]) dependent cell adhesion to ICAM-1 in the presence of BSA, ICAM-1, ICAM-1 and a compound of Formula (I) (Cmpd 1), Ig, anti-α4, anti-αL, anti-β1, and anti-β2.
(§1) Activating all integrins is necessary for firm endothelial cell adhesion for extravasation.

[2] = Clinical symptoms in monkeys; format: in vivo
[3] = system: VCAM-1; assay: Cell migration across VCAM-1 membrane toward SDF-1; format: cell-based; conditions: FIG. 5; different concentrations; SDF-1 in bottom part
Experimental: (§2) Referring now to FIG. 5, an apparatus for testing VCAM-1 and ICAM-1 cell migration, where the cells are initially placed in the top part of the apparatus including a member including VCAM-1 or ICAM-1, with the bottom part of the apparatus initially including SDF-1. Cell migration is then measured from top part to the bottom part for different concentration of CDPD 1, a compound of Formula (I) of VCAM-1 and ICAM-1 impregnated membrane.

[4] = target: α1b1/Collagen IV (Homo sapiens, UniProt P05556+P56199); assay: Integrin activation, adhesion α1b1/Collagen IV; format: cell-based; parameters: key: Not Active: Not active: ≤2 fold increase in adhesion; conditions: 50% serum; n = 3
From the text: as §1

[5] = system: ICAM-1; assay: Cell migration across ICAM-1 membrane toward SDF-1; format: cell-based; conditions: FIG. 5; different concentrations; SDF-1 in bottom part
Experimental: as §2

[6] = target: α5β1/Fibronectin (Homo sapiens, UniProt P05556+P08648); assay: Integrin activation, adhesion α5β1/Fibronectin; format: cell-based; conditions: 50% serum; n = 3; read-out: Integrin Selectivity EC50 α5β1/Fibronectin
From the text: as §1

[7] = target: VLA-4/VCAM-1 (Homo sapiens, UniProt P05556+P13612); assay: VLA-4 (α4β1) dependent cell adhesion to VCAM-1; format: cell-based; conditions: FIG. 3; VCAM-1 and Cmpd 1 versus BSA, VCAM-1 alone, Ig and anti-integrin antibodies
From the text: Referring now to FIG. 3, a histogram is shown of induced VLA-4 (α4β1) dependent cell adhesion to VCAM-1 in the presence of BSA, VCAM-1, VCAM-1 and a compound of Formula (I) (Cmpd 1), Ig, anti-α4, anti-αL, anti-β1, and anti-β2.
as §1

[8] = target: T1, α4β7/MAcDAM-1 (Homo sapiens, UniProt P13612+P26010); assay: Integrin activation, adhesion α4β7/MAcDAM-1; format: cell-based; conditions: 50% serum; n = 3; read-out: Integrin Selectivity EC50 α4β7/MAcDAM-1
T1 sequence (P13612 34-1032): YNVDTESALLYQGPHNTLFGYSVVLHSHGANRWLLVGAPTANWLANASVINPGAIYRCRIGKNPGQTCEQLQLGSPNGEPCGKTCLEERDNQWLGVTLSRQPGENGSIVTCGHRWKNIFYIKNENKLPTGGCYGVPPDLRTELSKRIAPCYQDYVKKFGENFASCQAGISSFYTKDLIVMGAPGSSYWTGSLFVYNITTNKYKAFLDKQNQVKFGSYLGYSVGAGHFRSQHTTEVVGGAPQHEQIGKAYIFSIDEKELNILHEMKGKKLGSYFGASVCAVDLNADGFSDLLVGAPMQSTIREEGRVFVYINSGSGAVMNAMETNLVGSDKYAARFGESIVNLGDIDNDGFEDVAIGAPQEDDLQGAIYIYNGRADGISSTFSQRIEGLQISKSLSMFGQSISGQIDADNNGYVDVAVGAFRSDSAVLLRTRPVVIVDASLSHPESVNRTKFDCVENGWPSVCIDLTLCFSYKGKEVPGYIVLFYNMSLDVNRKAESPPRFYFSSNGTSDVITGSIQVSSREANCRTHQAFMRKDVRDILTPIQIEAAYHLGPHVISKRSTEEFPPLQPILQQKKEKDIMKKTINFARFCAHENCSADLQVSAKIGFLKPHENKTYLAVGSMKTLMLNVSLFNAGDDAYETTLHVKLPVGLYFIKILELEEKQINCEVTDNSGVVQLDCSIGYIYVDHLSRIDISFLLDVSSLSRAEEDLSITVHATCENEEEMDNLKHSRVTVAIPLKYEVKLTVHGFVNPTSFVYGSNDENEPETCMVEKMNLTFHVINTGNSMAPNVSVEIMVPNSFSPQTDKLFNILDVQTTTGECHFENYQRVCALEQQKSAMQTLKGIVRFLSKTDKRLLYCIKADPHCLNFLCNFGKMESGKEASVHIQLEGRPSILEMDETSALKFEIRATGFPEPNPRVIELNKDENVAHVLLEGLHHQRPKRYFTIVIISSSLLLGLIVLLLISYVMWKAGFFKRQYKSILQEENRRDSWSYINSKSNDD
T1 sequence (P26010 20-798): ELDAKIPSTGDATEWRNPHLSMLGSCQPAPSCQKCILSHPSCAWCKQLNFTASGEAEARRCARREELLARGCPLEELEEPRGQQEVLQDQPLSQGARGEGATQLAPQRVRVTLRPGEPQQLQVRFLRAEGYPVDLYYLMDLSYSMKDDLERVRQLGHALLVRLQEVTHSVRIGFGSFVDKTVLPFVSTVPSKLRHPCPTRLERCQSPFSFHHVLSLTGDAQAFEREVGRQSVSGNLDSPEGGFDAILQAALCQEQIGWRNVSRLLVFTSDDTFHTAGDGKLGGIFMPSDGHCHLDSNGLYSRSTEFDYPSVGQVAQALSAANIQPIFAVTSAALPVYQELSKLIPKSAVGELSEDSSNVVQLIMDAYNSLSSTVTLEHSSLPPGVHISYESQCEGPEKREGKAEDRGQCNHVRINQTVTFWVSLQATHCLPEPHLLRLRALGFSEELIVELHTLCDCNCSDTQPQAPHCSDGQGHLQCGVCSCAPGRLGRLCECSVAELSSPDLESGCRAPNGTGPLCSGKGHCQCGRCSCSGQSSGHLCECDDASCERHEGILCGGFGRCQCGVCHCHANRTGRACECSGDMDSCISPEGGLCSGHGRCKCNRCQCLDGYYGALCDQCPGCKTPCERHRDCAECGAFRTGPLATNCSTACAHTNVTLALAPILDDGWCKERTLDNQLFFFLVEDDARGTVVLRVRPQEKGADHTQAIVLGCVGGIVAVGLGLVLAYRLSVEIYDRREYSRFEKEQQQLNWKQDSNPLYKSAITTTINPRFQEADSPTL
From the text: as §1

α5β1/Fibronectin, sequence (P08648 42-894 limits assumed): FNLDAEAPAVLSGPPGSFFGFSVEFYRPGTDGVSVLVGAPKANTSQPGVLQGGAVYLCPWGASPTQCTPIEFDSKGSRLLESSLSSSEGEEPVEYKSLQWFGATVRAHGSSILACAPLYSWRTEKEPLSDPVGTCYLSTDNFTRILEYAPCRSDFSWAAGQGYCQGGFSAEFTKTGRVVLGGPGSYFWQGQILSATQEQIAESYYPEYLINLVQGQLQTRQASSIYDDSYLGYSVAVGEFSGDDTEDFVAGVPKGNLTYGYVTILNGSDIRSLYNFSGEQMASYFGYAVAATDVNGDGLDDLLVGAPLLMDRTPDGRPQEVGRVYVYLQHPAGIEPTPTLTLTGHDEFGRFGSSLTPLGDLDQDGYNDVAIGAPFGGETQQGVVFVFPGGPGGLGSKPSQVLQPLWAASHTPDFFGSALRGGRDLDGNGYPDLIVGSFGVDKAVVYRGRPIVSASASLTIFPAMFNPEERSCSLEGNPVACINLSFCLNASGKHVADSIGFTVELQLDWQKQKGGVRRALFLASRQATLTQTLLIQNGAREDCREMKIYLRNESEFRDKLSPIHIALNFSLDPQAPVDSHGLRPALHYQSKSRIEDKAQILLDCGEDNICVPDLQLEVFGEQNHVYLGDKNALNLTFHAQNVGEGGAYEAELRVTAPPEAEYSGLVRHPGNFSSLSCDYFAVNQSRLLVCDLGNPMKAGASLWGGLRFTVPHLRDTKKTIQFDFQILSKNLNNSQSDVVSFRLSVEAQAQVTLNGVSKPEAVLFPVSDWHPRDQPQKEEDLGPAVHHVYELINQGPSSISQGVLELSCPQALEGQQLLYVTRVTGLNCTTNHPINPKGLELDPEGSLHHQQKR
α5β1/Fibronectin, sequence (P08648 895-1049 limits assumed): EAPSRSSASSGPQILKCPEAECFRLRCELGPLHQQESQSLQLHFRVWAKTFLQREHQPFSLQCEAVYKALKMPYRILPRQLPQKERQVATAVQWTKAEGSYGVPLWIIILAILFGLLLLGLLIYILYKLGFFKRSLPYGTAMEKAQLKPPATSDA
α5β1/Fibronectin, sequence (P05556 21-798): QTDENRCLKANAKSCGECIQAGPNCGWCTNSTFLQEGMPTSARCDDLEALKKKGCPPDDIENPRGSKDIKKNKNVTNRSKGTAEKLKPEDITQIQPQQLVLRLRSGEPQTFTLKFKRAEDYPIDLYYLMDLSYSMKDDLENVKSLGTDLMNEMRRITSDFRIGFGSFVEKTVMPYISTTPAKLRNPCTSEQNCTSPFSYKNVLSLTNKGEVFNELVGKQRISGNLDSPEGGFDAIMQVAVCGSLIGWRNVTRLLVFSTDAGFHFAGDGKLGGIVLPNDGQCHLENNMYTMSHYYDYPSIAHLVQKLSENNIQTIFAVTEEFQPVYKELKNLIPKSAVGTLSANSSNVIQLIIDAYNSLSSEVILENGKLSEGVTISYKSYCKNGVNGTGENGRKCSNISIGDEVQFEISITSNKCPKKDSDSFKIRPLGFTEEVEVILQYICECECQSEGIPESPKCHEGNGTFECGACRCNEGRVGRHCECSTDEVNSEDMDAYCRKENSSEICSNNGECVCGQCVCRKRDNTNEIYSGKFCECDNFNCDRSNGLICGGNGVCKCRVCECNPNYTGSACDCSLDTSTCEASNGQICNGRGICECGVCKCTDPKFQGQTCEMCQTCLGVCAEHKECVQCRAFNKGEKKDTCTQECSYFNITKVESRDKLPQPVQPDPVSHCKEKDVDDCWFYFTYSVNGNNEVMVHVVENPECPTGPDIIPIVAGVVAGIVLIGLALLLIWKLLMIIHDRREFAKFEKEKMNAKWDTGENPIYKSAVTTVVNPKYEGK
VLA-4/VCAM-1, sequence (P05556 21-798, one chain of several): as the sequence (P05556 21-798) above
α1b1/Collagen IV, sequence (P56199 29-1179): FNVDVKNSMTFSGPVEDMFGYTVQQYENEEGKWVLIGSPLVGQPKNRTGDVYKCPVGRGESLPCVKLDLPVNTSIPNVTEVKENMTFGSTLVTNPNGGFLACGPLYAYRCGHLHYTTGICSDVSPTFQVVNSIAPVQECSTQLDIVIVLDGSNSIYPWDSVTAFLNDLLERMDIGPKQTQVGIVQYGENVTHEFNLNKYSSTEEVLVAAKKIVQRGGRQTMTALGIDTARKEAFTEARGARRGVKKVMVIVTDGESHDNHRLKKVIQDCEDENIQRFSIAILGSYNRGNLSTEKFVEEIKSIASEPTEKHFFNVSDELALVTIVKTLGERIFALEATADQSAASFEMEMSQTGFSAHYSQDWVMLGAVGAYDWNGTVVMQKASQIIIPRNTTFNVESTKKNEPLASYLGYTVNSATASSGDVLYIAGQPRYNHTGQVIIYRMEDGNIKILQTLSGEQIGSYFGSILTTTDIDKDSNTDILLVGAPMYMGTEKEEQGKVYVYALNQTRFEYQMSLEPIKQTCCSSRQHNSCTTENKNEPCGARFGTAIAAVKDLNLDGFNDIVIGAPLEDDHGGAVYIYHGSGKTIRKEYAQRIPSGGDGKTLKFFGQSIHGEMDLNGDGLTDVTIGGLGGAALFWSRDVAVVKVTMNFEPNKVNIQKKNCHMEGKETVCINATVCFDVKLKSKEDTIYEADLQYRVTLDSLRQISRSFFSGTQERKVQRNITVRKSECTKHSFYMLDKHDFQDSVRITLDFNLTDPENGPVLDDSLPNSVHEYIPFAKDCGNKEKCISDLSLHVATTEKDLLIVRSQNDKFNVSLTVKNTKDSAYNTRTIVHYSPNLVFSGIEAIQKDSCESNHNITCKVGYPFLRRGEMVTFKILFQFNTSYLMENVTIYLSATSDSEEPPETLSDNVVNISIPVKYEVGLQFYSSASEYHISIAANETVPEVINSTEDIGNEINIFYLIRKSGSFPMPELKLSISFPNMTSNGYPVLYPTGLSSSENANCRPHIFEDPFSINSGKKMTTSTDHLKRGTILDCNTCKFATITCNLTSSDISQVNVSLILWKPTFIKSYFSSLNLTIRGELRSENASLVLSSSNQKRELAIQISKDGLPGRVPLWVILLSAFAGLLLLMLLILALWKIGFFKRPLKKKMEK
α1b1/Collagen IV, sequence (P05556 21-798): as the sequence (P05556 21-798) above
LFA-1/ICAM-1, sequence (P20701 26-1170): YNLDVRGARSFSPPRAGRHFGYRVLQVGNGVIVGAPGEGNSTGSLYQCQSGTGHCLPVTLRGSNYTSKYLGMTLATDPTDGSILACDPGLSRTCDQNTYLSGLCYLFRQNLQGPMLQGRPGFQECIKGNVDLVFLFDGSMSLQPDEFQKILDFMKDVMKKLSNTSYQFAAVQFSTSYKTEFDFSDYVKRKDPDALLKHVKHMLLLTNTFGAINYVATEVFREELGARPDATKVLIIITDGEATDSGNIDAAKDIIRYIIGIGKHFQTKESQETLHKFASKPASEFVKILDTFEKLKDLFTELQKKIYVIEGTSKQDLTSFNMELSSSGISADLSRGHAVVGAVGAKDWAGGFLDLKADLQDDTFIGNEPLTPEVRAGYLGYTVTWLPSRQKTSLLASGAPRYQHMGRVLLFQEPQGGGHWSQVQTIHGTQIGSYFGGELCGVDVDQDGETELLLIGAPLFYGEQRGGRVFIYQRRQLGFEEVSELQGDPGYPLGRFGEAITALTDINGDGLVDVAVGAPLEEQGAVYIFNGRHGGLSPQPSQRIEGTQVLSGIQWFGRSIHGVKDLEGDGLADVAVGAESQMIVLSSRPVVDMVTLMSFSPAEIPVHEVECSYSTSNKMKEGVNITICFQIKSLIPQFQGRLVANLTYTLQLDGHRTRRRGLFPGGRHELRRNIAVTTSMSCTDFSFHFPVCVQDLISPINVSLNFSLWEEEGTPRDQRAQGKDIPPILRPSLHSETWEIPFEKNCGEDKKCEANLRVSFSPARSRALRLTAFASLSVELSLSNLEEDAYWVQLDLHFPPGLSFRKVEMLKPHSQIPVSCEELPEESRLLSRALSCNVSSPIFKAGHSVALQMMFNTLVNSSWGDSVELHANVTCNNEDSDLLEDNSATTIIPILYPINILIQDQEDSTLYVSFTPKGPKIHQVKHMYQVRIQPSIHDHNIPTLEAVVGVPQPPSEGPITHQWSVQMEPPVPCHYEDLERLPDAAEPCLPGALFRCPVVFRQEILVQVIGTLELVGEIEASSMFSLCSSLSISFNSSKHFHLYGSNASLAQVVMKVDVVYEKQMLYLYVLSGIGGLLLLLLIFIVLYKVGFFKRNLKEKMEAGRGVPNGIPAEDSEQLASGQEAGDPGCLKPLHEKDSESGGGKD
LFA-1/ICAM-1, sequence (P05107 23-769): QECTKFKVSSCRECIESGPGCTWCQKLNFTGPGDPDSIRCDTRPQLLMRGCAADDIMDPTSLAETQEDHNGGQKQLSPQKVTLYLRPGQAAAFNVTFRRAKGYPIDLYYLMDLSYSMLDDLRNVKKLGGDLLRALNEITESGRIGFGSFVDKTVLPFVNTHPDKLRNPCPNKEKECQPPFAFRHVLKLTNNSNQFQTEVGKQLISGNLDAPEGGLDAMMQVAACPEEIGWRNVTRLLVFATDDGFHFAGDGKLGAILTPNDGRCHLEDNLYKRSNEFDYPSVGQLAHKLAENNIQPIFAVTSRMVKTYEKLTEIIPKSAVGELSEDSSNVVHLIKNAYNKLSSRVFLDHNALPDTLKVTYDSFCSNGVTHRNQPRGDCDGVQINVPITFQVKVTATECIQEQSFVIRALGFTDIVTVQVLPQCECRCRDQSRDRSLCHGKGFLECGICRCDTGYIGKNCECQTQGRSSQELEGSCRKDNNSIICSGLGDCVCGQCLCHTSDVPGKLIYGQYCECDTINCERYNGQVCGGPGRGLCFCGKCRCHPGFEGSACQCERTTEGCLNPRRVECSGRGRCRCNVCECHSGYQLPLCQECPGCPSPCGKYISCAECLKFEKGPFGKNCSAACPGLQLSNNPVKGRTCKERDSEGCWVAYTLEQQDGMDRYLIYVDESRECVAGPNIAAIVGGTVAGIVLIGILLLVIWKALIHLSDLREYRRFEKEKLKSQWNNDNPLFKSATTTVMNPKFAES

For O=C(OCCOCCOCCOC(=O)N(Cc1cccs1)Cc1cccs1)N(Cc1cccs1)Cc1cccs1 [Compound 1, 3-oxo-1-(2-thienyl)-2-(2-thienylmethyl)-4,7,10-trioxa-2-azadodecan-12-yl bis(2-thienylmethyl)carbamate], the “bound cells, adhesion to ICAM-1” value [1] was “highest bound cells”, the “exposure up to which no clinical symptoms” value [2] was ~50 times therapeutic exposure and the “exposure with no adverse clinical symptoms” value [2] was > 50 times therapeutic exposure. For the same compound, the “cell migration, VCAM-1” value [3] was “migration enhancement”, the “Integrin Selectivity EC50 α1b1/Collagen IV” value [4] was “Not Active” and the “cell migration, ICAM-1” value [5] was “migration enhancement”. For the same compound, the EC50 [6] was 7.7 ± 2.3 µM, the “bound cells, adhesion to VCAM-1” value [7] was “highest bound cells” and the EC50 [8] was 10 ± 2.1 µM.
